Values of other authors in patent US8343544B2, “Oral sustained-release tablet” (Kyorin Pharmaceutical Co., Ltd., priority 2003, dated 2013).

Conditions: conventional preparation

Cc1nccn1CCC(C(N)=O)(c1ccccc1)c1ccccc1 [KRP-197, 4-(2-methyl-1-imidazolyl)-2,2-diphenylbutylamide]
absorption after an oral administration: rapidly absorbed | half-life (oral): relatively short
